From patent US20160228444A1, “NUCLEOSIDE ANALOGS AND USES THEREOF” (Ramot at Tel-Aviv University Ltd., priority 2015, published 2016)
Structures can show the parent of a compound that is named as a salt. Where two headings read alike, the source gives them in different places. Blank lines part the entries; values can stand above or below the compound they belong to.

Key:
bFGF = bFGF protein and mRNA in tumor and heart of xenograft mice (Western blot, qRT-PCR); format: in vivo; settings: single agent
Experimental: (§1) Tumors and hearts of the mice were rapidly removed, frozen on dry ice and kept at −70° C. Tissue was then homogenized and RNA and proteins extracted using the NucleoSpin® RNA/Protein kit according to the manufacturer's protocol (Macherey-Nagel, GmbH & Co KG).
(§2) Total RNA ([…]) was primed by oligo dT and reverse-transcribed by Verso cDNA kit according to the manufacturer's protocol (Thermo Scientific). Analyses of qPCR were performed with Kapa Sybr® Fast (Kapa Biosystems) on a Step One Plus thermocycler (Applied Biosystems). The comparative threshold method was used to calculate the relative gene expression. Values were normalized against glyceraldehyde 3-phosphate dehydrogenase (GAPDH). Expression of the GAPDH mRNA in each individual sample was used to normalize the dataset. The sequences of the primers were as follows: […]
(§3) Protein levels in the samples were determined with the BCA protein assay kit (Pierce). The samples were subjected to Western blot analyses. The expression of proteins was visualized using their specified primary antibodies followed by the secondary IgG IRDye® 680DX antibody. Each detected band was quantified using the Odyssey Infrared Imaging System (LI-COR Biosciences) and normalized to the level of actin. The fold increase of a specific protein was determined by the ratio of the band intensity obtained from treated and untreated samples.
(§4) The pro-angiogenic factors basic fibroblast growth factor (bFGF) and vascular endothelial growth factor (VEGF) are potent angiogenic stimulators. The expression of bFGF in the tumor and in the heart was evaluated by Western blot and qRT-PCR analyses and expression of VEGF by IHC.

c-Myc = c-Myc and p-c-Myc (Thr 58) Western blot in tumor and heart of xenograft mice; format: in vivo
Experimental: as §3
The c-Myc protein is an important regulator of normal cell physiology and in tumor cells it plays an important role in activating oncogenic pathways [Soucek & Evan, Curr Opin Genet Dev 2010, 20:91-95].

fibrous collagen = test: Fibrosis in tumor, heart and kidney of U251 xenograft mice (Picrosirius Red / Fast Green); format: in vivo; settings: single agent
Experimental: (§5) AN446 was tested in vivo using a xenograft of glioblastoma (U251 cells) in mice.

PBL = test: Median-effect drug interaction, MTT viability, 72 h; format: cell-based; settings: Homo sapiens
Experimental: (§6) Cell viability was determined by an MTT cell viability assay after 48 hours. MyLa cells (10^4 cells/well), Hut78 cells (5×10^3 cells/well) and normal PBLs (10^5 cells/well) were seeded in 96 well-plates. The PBLs were activated with 40 μg/10^6 cells of phytohemagglutinine (PHA) for 24 h before the experiment.
(§7) The ratios of the drug combination were based on the ratio of their IC50 of each drug alone. Cell viability was determined by MTT assay, as described hereinabove. The drugs were added to the cells and incubated for 72 h.

TNF-α [1] = test: Serum TNF-α in U251 xenograft mice (ELISA); format: in vivo; settings: single agent, FIG. 8C
Experimental: as §5

VEGF = VEGF immunohistochemistry in tumor and heart of xenograft mice; format: in vivo; settings: FIG. 4F
Experimental: as §4

[2] = test system: NCI-N87 gastric carcinoma cells; test: Median-effect drug interaction, Hoechst viability, 72 h; format: cell-based, human; settings: Homo sapiens
Experimental: as §7
(§8) Drug interaction in adherent cells was evaluated as above except that the viability was determined by Hoechst assay.

T47D cells = test: as above; format: cell-based, human
Experimental: as §7, §8

MDA-231 cells = test: as above; format: cell-based, human; settings: Homo sapiens
Experimental: as §7, §8

[3] = test system: murine mammary carcinoma 4T1; test: FACS viability, annexin V-FITC / PI; format: cell-based; settings: AN446 24 h; 200 nM Dox 5 h; combination compared to Dox alone; FIG. 1C
Experimental: (§9) Cell viability by flow cytometry analysis (FACS) analysis was determined using the Mebcyto apoptosis kit (MBL-Japan). The cell lines 4T1, U251 (2×10^5 cells/well), astrocytes and the cardiomyoblastic cell line H9C2 (5×10^5 cells/well) were seeded in six-well plates. Following treatment they were trypsinized, washed with PBS, resuspended in […] of binding buffer and double-stained with annexin V-FITC and propidium iodide (PI) according to the manufacturer's instructions. The stained cells were subjected to FACS analyses (Calibur cytometer, Becton Dickinson) where 30,000 cells were allowed to flow for each determination point and the percentage of cells in each state (viability or death) was defined by their distribution in fluorescence dot-plots using WinMdi 2.8 software (Scripps Research Institute, La-Jolla, USA).
(§10) The apoptotic effect of AN446, Dox and their combination was evaluated in U251 and 4T1 cancer cells, and in the non-cancerous rat cardiomyoblast cell line (H9C2) and in primary rat astrocytes, using procedures previously described for AN7 [Tarasenko et al., Invest New Drugs 2012, 30:130-143].

[4] = test system: U251 MG human glioma cells; test: FACS viability, annexin V-FITC / PI; format: cell-based; settings: AN446 24 h; 200 nM Dox 5 h; combination compared to Dox alone; FIG. 1C
Experimental: as §9, §10

HUT-78 CTCL cells = test: Median-effect drug interaction, MTT viability, 72 h; format: cell-based, human
Experimental: as §6, §7

[5] = test system: U251 human glioblastoma xenograft; test: Glioblastoma xenograft model (survival, body weight, tumor volume, tumor weight, Ki-67)
Experimental: Xenograft of glioblastoma: 8- to 10-week-old male Hsd athymic FOXN (Harlan, Jerusalem, Israel) were inoculated sc in the flanks with 5×10^6 U251 cells. Tumor length (L) and width (W) were measured with a caliper twice weekly. Tumor volumes were calculated according to the formula: (L×W2)/2. When the tumor was established (volume of 50-100 mm^3) the mice were randomly divided into six groups treated with: vehicle control (saline); ip Dox 4 mg/kg once weekly; po AN446 25 mg/kg thrice a week; po AN7 50 mg/kg thrice a week; combination of AN446+Dox (4 mg/kg ip Dox once a week and 25 mg/kg po AN446 thrice a week); AN7+Dox (4 mg/kg ip Dox once a week and 50 mg/kg po AN7 thrice weekly). Untreated, non-bearing tumor naive mice were maintained under the same conditions. The experiment was terminated after 25 treatment days, the mice were sacrificed under CO2 and their tumors and hearts were removed, weighed and divided into parts dedicated for immunohistochemistry (IHC) and the rest were frozen (−80° C.) for Western blot and Quantitative PCR (qRT-PCR) analyses.
Inactivation of avidin-biotin nonspecific binding was prevented by a blocking kit, according to the manufacturer's protocol (Vector Laboratories). […] The secondary antibody was biotin conjugated goat anti-rabbit or anti-mouse IgG. Slides were then stained with the ABC peroxidase system, developed with diaminobenzidine (DAB) (Vector Laboratories) and counterstained with hematoxylin (Bio-Optica, Milano, Italy). The slides were examined using an Olympus BX 52 light microscope, and images were taken with an Olympus DP50 digital camera system.
Mice were implanted subcutaneously with U251 cells and when the tumors reached 50-100 mm^3 treatments were initiated. Survival was evaluated by the Kaplan-Meier end-product analysis, where treatment failure (the experimental end points) was a loss of ˜20% body weight, or a tumor volume of >1 cm^3.

HO-1 = HO-1 protein and mRNA in tumor and heart of xenograft mice (Western blot, qRT-PCR); format: in vivo; settings: single agent
Experimental: as §1, §2, §3
The effect of the drugs on the expression of genes associated with cell survival and death was examined by following changes in transcription and protein expression in tissue samples taken from the mice with glioblastoma xenografts. Heme oxygenase (HO-1) is known to play a protective role in the heart, whereas, in many cancers it is expressed and promotes growth and survival of neoplastic cells.

TNF-α [6] = test: TNF-α gene expression in MDA-MB-231 cells (qRT-PCR); format: cell-based, human; settings: single agent, FIG. 7C
Experimental: (§11) The effect of AN446 on inflammation-associated pathways was evaluated in the monocytic THP1 cell line and in the MDA-MB-231 breast carcinoma cell line. Supernatants of treated THP1 cells were collected and IL-6, IL-10 and TNF-α concentrations were quantified by ELISA (R&D systems). TLR4 expression in THP1 cells was assessed using fluorescent anti-TLR4 antibodies and FACS analysis. In addition, gene expression for MCP-1, TNF-α and TLR4 in MDA-MB-231 was evaluated by qRT-PCT, following treatment with AN446 and/or paclitaxel.

TLR4 = TLR4 gene expression in MDA-MB-231 cells (qRT-PCR); format: cell-based, human; settings: single agent, FIG. 7C
Experimental: as §11

MCP-1 = MCP-1 gene expression in MDA-MB-231 cells (qRT-PCR); format: cell-based, human; settings: single agent, FIG. 7C
Experimental: as §11

SMILES: COc1cccc2c1C(=O)c1c(O)c3c(c(O)c1C2=O)C[C@@](O)(C(=O)CO)C[C@@H]3O[C@H]1C[C@H](N)[C@H](O)[C@H](C)O1 [Dox, Doxorubicin hydrochloride]
expression of mouse bFGF protein in the heart (bFGF; heart, FIG. 4D): decreased significantly
bFGF mRNA in the tumor (bFGF; tumor, FIG. 6): significantly reduced the bFGF mRNA
expression of bFGF in tumors (bFGF; tumor, FIGS. 4A, 4B): decreased significantly
c-Myc protein expression in the hearts (c-Myc; heart, FIG. 5B): repressed
c-Myc protein expression in tumors (c-Myc; tumor, FIG. 5A): unaffected
fibrosis in the heart (fibrous collagen; heart, FIGS. 8A-8C): induced fibrosis
fibrosis in the kidneys (fibrous collagen; kidneys, FIG. 8A): induced fibrosis
fibrosis in the tumor (fibrous collagen; tumor, FIG. 8A): reduced fibrosis
IC50 (PBL; Dox in combination with AN446, read-out: Dox com IC50): 15 nM
IC50 (PBL; Dox in combination with SAHA, read-out: Dox com IC50): 20 nM
IC50 (PBL; single agent, read-out: Dox IC50): 70 nM
serum levels of TNF-α (TNF-α [1]): increased serum levels of TNF-α
VEGF expression in the heart (VEGF): reduced
IC50 ([2]; NCI-N87, NCI-N87, Dox in combination with AN446, read-out: Dox com IC50): 8.5 ± 1 nM
IC50 ([2]; NCI-N87, NCI-N87, single agent, read-out: Dox IC50): 30 ± 1.3 nM
IC50 (T47D cells; Homo sapiens, Dox in combination with AN446, read-out: Dox com IC50): 7.6 nM
IC50 (T47D cells; Homo sapiens, Dox in combination with SAHA, read-out: Dox com IC50): 5.2 nM
IC50 (T47D cells; Homo sapiens, single agent, read-out: Dox IC50): 19 nM
IC50 (T47D cells; single agent, hydrochloride, read-out: Dox IC50): 19.1 nM
IC50 (MDA-231 cells; MDA-MB-231, MDA-231, Dox in combination with AN446, read-out: Dox com IC50): 5.3 nM
IC50 (MDA-231 cells; MDA-MB-231, MDA-231, Dox in combination with SAHA, read-out: Dox com IC50): 4.3 nM
IC50 (MDA-231 cells; MDA-MB-231, MDA-231, single agent, read-out: Dox IC50): 10.2 nM
viability / mortality of 4T1 cells [3]: significantly reduced the viability
viability / mortality of U251 cells [4]: significantly reduced the viability
IC50 (HUT-78 CTCL cells; HUT-78, single agent, hydrochloride, read-out: Dox IC50): 31 nM
IC50 (HUT-78 CTCL cells; Homo sapiens, HuT78, HUT-78, Dox in combination with AN446, read-out: Dox com IC50): 11 nM
IC50 (HUT-78 CTCL cells; Homo sapiens, HuT78, HUT-78, Dox in combination with SAHA, read-out: Dox com IC50): 12 nM
IC50 (HUT-78 CTCL cells; Homo sapiens, HuT78, HUT-78, single agent, read-out: Dox IC50): 30.8 nM
body weight ([5]; Dox 4 mg/kg ip once a week, from day 13): drastic decrease in body weight
treatment failure ([5]; Dox 4 mg/kg ip once a week, weight loss contributing): 60%
Ki-67 positive cells in tumors ([5]; single agent vs vehicle, FIGS. 3E, 3F): considerably more Ki-67 positive cells were detected in tumors of the vehicle-treated mice
survival of mice until end of experiment (day 25) ([5]; single agent: AN446 25 mg/kg or AN7 50 mg/kg po thrice weekly, Dox 4 mg/kg ip once a week, FIG. 3A): 40%
HO-1 mRNA in the heart (HO-1; heart): decreased HO-1 mRNA
HO-1 expression in the heart (decrease) (HO-1; heart, FIGS. 4D, 4E): ~5 fold
tumor HO-1 protein expression (decrease) (HO-1; tumor, FIGS. 4A, 4B): unchanged

IC50 ([2]; NCI-N87, paclitaxel in combination with AN446, read-out: Paclitaxel com IC50): 1.8 ± 0.2 nM
IC50 ([2]; NCI-N87, single agent, read-out: Paclitaxel IC50): 4 nM
IC50 (T47D cells; Homo sapiens, paclitaxel in combination with AN446, read-out: Paclitaxel com IC50): 2.8 ± 0.1 nM
IC50 (T47D cells; Homo sapiens, paclitaxel in combination with SAHA, read-out: Paclitaxel com IC50): 2.3 ± 0.01 nM
IC50 (T47D cells; Homo sapiens, paclitaxel in combination with valproic acid, read-out: Paclitaxel com IC50): 3.6 ± 0.1 nM
IC50 (T47D cells; Homo sapiens, single agent, read-out: Paclitaxel IC50): 3.2 ± 0.1 nM
SMILES: CC(=O)O[C@H]1C(=O)[C@@]2(C)[C@H]([C@H](OC(=O)c3ccccc3)[C@]3(O)C[C@H](OC(=O)[C@H](O)[C@@H](NC(=O)c4ccccc4)c4ccccc4)C(C)=C1C3(C)C)[C@]1(OC(C)=O)CO[C@@H]1C[C@@H]2O [Paclitaxel, paclitaxel]
expression of TNF-α (TNF-α [6]): paclitaxel-induced increase
expression of TLR4 (TLR4): paclitaxel-induced increase
expression of MCP-1 (MCP-1): paclitaxel-induced increase
IC50 (MDA-231 cells; MDA-MB-231, MDA-231, paclitaxel in combination with AN446, read-out: Paclitaxel com IC50): 1.7 ± 0.01 nM
IC50 (MDA-231 cells; MDA-MB-231, MDA-231, paclitaxel in combination with SAHA, read-out: Paclitaxel com IC50): 1.5 nM
IC50 (MDA-231 cells; MDA-MB-231, MDA-231, paclitaxel in combination with valproic acid, read-out: Paclitaxel com IC50): 1.6 ± 0.01 nM
IC50 (MDA-231 cells; MDA-MB-231, MDA-231, single agent, read-out: Paclitaxel IC50): 4.4 ± 0.2 nM
